Test results taken from patent publication US12460153B2, “Method for transforming an essential oil” (PRANAROM INTERNATIONAL S.A., priority 2019, dated 2025).

How the values were obtained:
S. aureus LMG 8064 = experiment: Individual activity: MIC by microdilution; assay type: cell-based, Staphylococcus aureus; settings: MSSA LMG 8064 strain; PV alone
Excerpt: (§1) Within the framework of this invention, the individual activity makes reference to the antimicrobial activity exerted by the EO itself. The individual activity may, for example, be evaluated simply by measuring the MIC (minimum inhibitory concentration), which is the lowest concentration sufficient to inhibit, in vitro, the growth of a bacterial strain, after treating different bacterial strains by different EOs transformed or not according to the method of the invention.
(§2) To do this, the stock solutions of EO (EO-C and EO-T) were first diluted in DMSO at the rate of 10 μl EO in 300 μl DMSO, They were agitated and stored at ambient temperature, away from the light, in glass tubes autoclaved with threaded cap. The individual activity of the EOs was measured by the microdilution method in a 96 well tray so as to obtain the MIC, value at which a solution inhibits bacterial growth. The bacterial strains treated were S. aureus LMG 15975 (methicillin-resistant Staphylococcus aureus, hereinafter referred to as MRSA÷), E. coli LMG 8223, E. coli LMG 15862, P. aeruginosa LMG 6395, S. aureus LMG 8064, S. aureus LMG 16217 (methicillin-resistant Staphylococcus aureus, hereinafter referred to as MRSA++), E. faecalis LMG 8222, K. pneumoniae LMG 20218 and E. aerogenes LMG 2094. […]

[1] = tested on: Staphylococcus aureus LMG 15975; experiment: Individual activity: MIC by microdilution in 96-well tray; assay type: cell-based; settings: S. aureus LMG 15975 (MRSA+); substance alone
Excerpt: as §1, §2

S. aureus LMG 16217 = experiment: Individual activity: MIC of antibiotic alone, microdilution; assay type: cell-based, Staphylococcus aureus; settings: S. aureus LMG 16217 (MRSA++)
Description: […] The individual activity may, for example, be evaluated simply by measuring the MIC (minimum inhibitory concentration), which is the lowest concentration sufficient to inhibit, in vitro, the growth of a bacterial strain, after treating different bacterial strains by different EOs transformed or not according to the method of the invention.
To do this, the stock solutions of EO (EO-C and EO-T) were first diluted in DMSO at the rate of 10 μl EO in 300 μl DMSO, They were agitated and stored at ambient temperature, away from the light, in glass tubes autoclaved with threaded cap. The individual activity of the EOs was measured by the microdilution method in a 96 well tray so as to obtain the MIC, value at which a solution inhibits bacterial growth. The bacterial strains treated were S. aureus LMG 15975 (methicillin-resistant Staphylococcus aureus, hereinafter referred to as MRSA÷), E. coli LMG 8223, E. coli LMG 15862, P. aeruginosa LMG 6395, S. aureus LMG 8064, S. aureus LMG 16217 (methicillin-resistant Staphylococcus aureus, hereinafter referred to as MRSA++), E. faecalis LMG 8222, K. pneumoniae LMG 20218 and E. aerogenes LMG 2094. Inocula of the bacterial strains were prepared by placing colonies of 18-24 hours of strains suspended in a sterile physiological solution (NaCl 0.85%). These inocula were then adjusted and diluted so as to obtain a final concentration of 5×10^5 CFU/ml. Concerning the test solutions, 300 μl of stock solutions of EO (diluted in DMSO) were added to 4.7 ml culture medium (for example to Mueller Hinton Broth), so as to obtain a solution of EO of 2 mg/ml which was then diluted in series by half in multi-well trays. The final percentage of DMSO in the wells is less than 5%. After inoculation, the multi-well trays were incubated for 18-24 hours at 37° C. and the presence of bacteria was viewed by adding methyl tetrazolium (MU).

SMILES | MIC of PV (S. aureus LMG 8064) | Individual activity MIC: PV/EO [1] | MIC of the antibiotic on this strain (S. aureus LMG 16217)
CC1(C)S[C@@H]2[C@H](NC(=O)COc3ccccc3)C(=O)N2[C@H]1C(=O)O [PV, penicillin V] | 0.015 µg/mL | 4 µg/mL | 64 µg/mL
CC1(C)S[C@@H]2[C@H](NC(=O)[C@H](N)c3ccc(O)cc3)C(=O)N2[C@H]1C(=O)O [amoxicillin] |  |  | 64 µg/mL
CC1(C)S[C@@H]2[C@H](NC(=O)Cc3ccccc3)C(=O)N2[C@H]1C(=O)O [penicillin G] |  |  | 64 µg/mL
